These results are taken from patent US20260284168A1, “RNA FOR PREVENTING OR TREATING TUBERCULOSIS” (priority 2023, published 2026).

The assay has as its system Caspase-1. The format is cell-based. The note with it: 50 μM.

With `CCO[C@@H]1OC(=O)C[C@@H]1NC(=O)[C@@H]1CCCN1C(=O)[C@@H](NC(=O)c1ccc(N)c(Cl)c1)C(C)(C)C` [VX765], the “effect of Caspase-1 inhibitor on IL-1β release” value is “inhibited IL-1ß release”.
